# Experimental data: patent US10647682B2, “Salts of 2,6-dimethylpyrimidone derivatives and uses thereof” (SUNSHINE LAKE PHARMA CO., LTD., priority 2016, dated 2020)
# Like-named read-outs stand apart in the source and are kept apart here.
# Experiments:
# [1] = High temperature test (stability); format: physicochemical; conditions: 60° C.; for purity: HPLC
# Description: High temperature test: an appropriate amount of sample was put in a weighing bottle in the form of a thin layer of ≤5 mm, under a temperature of 60° C. for 10 days. Samples were took at fifth and tenth day, appearance was observed and purity was detected by HPLC.
# [2] = High humidity test (stability); format: physicochemical; conditions: 25° C., RH 90%±5%, HPLC
# Description: High humidity test: an appropriate amount of sample was put in a weighing bottle in the form of a thin layer of ≤5 mm, under a temperature of 25° C. and RH 90%±5% for 10 days. Samples were took at fifth and tenth day, appearance was observed and purity was detected by HPLC.
# [3] = Pharmacokinetics experiments of the salts, oral capsules in Beagle dogs; conditions: 5 mg/kg
# Description: (§1) (3-(4-(dihexylamino)-3-fluorophenyl)-2,6-dimethylpyrimidin-4(3H)-one), crystalline forms of the various salts were filled into capsules, which were administered orally.
# (§2) Blood samples were collected at 0.25, 0.5, 1.0, 2.0, 4.0, 6.0, 8.0, 12 and 24 hours after the administration. Standard curve was plotted based on concentrations of the samples in a suitable range, the concentrations of test compounds in plasma samples were determined by using Agilent 6430 LC-MS/MS under MRM mode, and quantitative analysis was performed. Pharmacokinetic parameters were calculated according to drug concentration-time curve using a noncompartmental method by WinNonLin 6.3 software.
# [4] = dog, in vivo, po, 5 mg/kg
# Description: as §1, §2
Structure (SMILES),purity ([1]; 0 d) [%],purity ([1]; 5 d) [%],purity ([1]; 10 d) [%],purity ([2]; 0 d) [%],purity ([2]; 5 d) [%],purity ([2]; 10 d) [%],"AUCINF ([3]; male Beagle dogs, oral capsule) [ng·h/mL]","AUClast ([3]; male Beagle dogs, oral capsule) [ng·h/mL]","Cmax ([3]; male Beagle dogs, oral capsule) [ng/mL]","MRTINF ([3]; male Beagle dogs, oral capsule) [h]","T1/2 ([3]; male Beagle dogs, oral capsule) [h]","Tmax ([3]; male Beagle dogs, oral capsule) [h]",AUCINF [4] [ng·h/mL],AUClast [4] [ng·h/mL],Cmax [4] [ng/mL],MRTINF [4] [h],T1/2 [4] [h],Tmax [4] [h],exposure compared to free compound (I) [4],also measured
"CCCCCCN(CCCCCC)c1ccc(-n2c(C)nc(C)cc2=O)cc1F.Cc1ccc(S(=O)(=O)O)cc1 [Example 6, 3-(4-(dihexylamino)-3-fluorophenyl)-2,6-dimethylpyrimidin-4(3H)-one Tosilate Crystal-I]",99.83,99.81,99.81,99.83,99.80,99.83,3010,2720,329,17.5,17.5,2,,,,,,,,"exposure compared to free compound (I) ([3]; male Beagle dogs, oral capsule, conclusion from table 1): relative higher exposure"
"CCCCCCN(CCCCCC)c1ccc(-n2c(C)nc(C)cc2=O)cc1F.Cl [Example 2, 3-(4-(dihexylamino)-3-fluorophenyl)-2,6-dimethylpyrimidin-4(3H)-one Hydrochloride Crystal-II]",99.85,99.86,99.83,99.85,99.86,99.82,,,,,,,2820,2940,485,9.43,9.54,8.83,relative higher exposure,
"CCCCCCN(CCCCCC)c1ccc(-n2c(C)nc(C)cc2=O)cc1F.O=C(O)/C=C\C(=O)O [Example 8, 3-(4-(dihexylamino)-3-fluorophenyl)-2,6-dimethylpyrimidin-4(3H)-one Maleate Crystal-I]",99.53,99.49,99.05,99.53,99.51,99.49,,,,,,,38337.53,5859.22,588,155.21,110.28,2,relative higher exposure,appearance ([1]; 0 d): white solid
"CCCCCCN(CCCCCC)c1ccc(-n2c(C)nc(C)cc2=O)cc1F [Compound (I), 3-(4-(dihexylamino)-3-fluorophenyl)-2,6-dimethylpyrimidin-4(3H)-one]",,,,,,,,,,,,,,,,,,,,"AUC(0-inf) ([3]; male, Beagle, dog, plasma, po): 2320 ng·h/mL; AUC(0-t) ([3]; male, Beagle, dog, plasma, po): 1730 ng·h/mL; Cmax ([3]; male, Beagle, dog, plasma, po): 244 ng/mL; MRT inf ([3]; male, Beagle, dog, plasma, po): 23.3 h; Tmax ([3]; male, Beagle, dog, plasma, po): 1.17 h; half-life ([3]; male, Beagle, dog, plasma, po): 13.8 h"
"CCCCCCN(CCCCCC)c1ccc(-n2c(C)nc(C)cc2=O)cc1F.Cl [Example 1, 3-(4-(dihexylamino)-3-fluorophenyl)-2,6-dimethylpyrimidin-4(3H)-one Hydrochloride Crystal-I]",99.81,99.80,99.79,99.81,99.79,99.80,6310,4470,364,41.9,34.5,2.33,,,,,,,,
